Measurements taken from ChEMBL document CHEMBL1131356, “New generation dopaminergic agents. 2. Discovery of 3-OH-phenoxyethylamine and 3-OH-N1-phenylpiperazine dopaminergic templates” (Bioorg Med Chem Lett, 1998).

Key:
[1] = biological target: T1, D(2) dopamine receptor (Rattus norvegicus, UniProt P61169)
Description: Agonistic activity towards dopamine D2 receptor using radioligand [3H]quinpirole in rat striatal membranes

[2] = biological target: T2, D(4) dopamine receptor (Homo sapiens, UniProt P21917); assay: Binding affinity towards human cloned dopamine (hD4.4) receptor expressed in CHO cells using [3H]spiperone as radioligand; assay type: cell-based
T2 sequence (P21917 whole entry): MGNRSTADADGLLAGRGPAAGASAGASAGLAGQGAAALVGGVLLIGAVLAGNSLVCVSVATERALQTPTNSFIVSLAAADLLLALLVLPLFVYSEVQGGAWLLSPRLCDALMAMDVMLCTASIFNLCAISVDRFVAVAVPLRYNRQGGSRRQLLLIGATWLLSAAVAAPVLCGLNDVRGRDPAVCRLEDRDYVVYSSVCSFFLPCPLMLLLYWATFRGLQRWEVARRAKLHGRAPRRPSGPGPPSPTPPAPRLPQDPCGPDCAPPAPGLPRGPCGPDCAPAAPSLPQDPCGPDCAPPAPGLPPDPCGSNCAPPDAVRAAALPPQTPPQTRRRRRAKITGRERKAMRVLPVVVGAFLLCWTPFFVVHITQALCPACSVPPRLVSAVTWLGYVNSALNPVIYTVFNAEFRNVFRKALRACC

[3] = biological target: D(3) dopamine receptor (Homo sapiens, UniProt P35462); assay: biochemical
Description: Binding affinity towards human cloned dopamine (hD3) receptor expressed in CHO cells using [3H]spiperone as radioligand

[4] = biological target: D(2) dopamine receptor (Homo sapiens, UniProt P14416); assay: biochemical
Description: Binding affinity towards human cloned dopamine (hD2s) receptors expressed in CHO cell membranes using [3H]spiperone

[5] = biological target: T1, D(2) dopamine receptor; remark: listed apart in the source
Description: Antagonistic activity towards dopamine D2 receptor using radioligand [3H]spiperone in rat striatal membranes

[6] = biological target: T3, Adrenergic receptor alpha-1 (Homo sapiens, UniProt P35348+P25100+P35368); assay: Binding affinity for Alpha-1 adrenergic receptor; assay type: protein assay
T3 sequence (P35348 whole entry): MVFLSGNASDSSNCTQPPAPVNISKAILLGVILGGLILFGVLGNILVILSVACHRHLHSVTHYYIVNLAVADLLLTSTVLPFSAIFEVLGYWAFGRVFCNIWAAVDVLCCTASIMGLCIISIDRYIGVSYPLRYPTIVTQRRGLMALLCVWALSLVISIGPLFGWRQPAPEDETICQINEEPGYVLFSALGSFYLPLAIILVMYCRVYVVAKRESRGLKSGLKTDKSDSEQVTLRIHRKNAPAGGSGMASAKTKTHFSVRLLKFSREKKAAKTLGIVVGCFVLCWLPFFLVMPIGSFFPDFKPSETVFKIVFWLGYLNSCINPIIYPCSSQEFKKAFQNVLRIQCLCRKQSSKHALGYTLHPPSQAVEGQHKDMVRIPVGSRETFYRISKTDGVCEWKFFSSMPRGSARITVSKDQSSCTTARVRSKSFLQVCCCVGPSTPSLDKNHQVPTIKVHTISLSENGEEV
T3 sequence (P25100 whole entry): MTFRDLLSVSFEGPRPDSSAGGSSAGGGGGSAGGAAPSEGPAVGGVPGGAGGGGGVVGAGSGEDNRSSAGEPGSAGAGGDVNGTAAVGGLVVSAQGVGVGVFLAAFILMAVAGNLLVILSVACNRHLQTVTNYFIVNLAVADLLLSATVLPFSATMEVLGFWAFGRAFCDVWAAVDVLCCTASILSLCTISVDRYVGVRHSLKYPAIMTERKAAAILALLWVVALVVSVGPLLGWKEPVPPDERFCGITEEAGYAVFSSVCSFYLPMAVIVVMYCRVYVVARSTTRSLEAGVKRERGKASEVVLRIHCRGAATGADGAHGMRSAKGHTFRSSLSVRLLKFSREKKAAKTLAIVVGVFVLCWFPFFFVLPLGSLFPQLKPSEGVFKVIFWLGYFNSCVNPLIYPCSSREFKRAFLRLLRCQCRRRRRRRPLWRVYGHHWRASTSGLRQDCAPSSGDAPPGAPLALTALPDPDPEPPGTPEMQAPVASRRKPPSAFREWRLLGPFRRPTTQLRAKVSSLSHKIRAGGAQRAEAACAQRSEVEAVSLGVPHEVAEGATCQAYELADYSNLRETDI
T3 sequence (P35368 whole entry): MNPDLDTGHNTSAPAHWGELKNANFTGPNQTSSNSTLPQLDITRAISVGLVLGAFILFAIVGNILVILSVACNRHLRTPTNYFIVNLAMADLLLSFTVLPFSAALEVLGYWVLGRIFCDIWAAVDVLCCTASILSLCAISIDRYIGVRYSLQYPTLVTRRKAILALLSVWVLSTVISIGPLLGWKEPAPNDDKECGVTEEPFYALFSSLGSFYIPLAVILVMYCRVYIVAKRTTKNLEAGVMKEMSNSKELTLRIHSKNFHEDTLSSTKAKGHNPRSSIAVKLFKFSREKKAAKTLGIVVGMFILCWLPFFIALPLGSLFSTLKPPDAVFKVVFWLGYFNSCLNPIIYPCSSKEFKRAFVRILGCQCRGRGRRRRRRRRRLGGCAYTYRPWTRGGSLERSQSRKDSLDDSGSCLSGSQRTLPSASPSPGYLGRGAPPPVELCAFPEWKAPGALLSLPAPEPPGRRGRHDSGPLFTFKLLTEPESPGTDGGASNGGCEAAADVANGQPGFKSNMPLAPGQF

[7] = biological target: T2, D(4) dopamine receptor; assay: Binding affinity towards human cloned Dopamine receptor D4.4 expressed in CHO cells using [3H]spiperone as radioligand; assay type: cell-based
[8] = biological target: T4, 5-hydroxytryptamine receptor 1A (Mus musculus, UniProt Q64264); assay: Binding affinity for 5-hydroxytryptamine 1A receptor
T4 sequence (Q64264 whole entry): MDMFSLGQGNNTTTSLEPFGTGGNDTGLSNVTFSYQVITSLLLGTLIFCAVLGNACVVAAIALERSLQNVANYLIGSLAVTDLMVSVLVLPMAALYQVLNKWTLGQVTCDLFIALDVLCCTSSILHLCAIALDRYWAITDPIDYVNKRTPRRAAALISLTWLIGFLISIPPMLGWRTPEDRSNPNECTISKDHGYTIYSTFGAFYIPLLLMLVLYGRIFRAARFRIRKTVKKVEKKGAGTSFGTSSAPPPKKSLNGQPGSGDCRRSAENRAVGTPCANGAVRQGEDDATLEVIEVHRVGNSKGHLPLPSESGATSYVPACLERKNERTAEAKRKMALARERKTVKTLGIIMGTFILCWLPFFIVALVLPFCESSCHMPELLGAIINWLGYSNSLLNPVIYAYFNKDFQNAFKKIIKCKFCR

[9] = tested on: Mus musculus; assay: Dose required to inhibit locomotor activity in mice when administered subcutaneously; assay type: functional; conditions: sc

Sequence of D(2) dopamine receptor (Homo sapiens, UniProt P14416) (P14416 whole entry): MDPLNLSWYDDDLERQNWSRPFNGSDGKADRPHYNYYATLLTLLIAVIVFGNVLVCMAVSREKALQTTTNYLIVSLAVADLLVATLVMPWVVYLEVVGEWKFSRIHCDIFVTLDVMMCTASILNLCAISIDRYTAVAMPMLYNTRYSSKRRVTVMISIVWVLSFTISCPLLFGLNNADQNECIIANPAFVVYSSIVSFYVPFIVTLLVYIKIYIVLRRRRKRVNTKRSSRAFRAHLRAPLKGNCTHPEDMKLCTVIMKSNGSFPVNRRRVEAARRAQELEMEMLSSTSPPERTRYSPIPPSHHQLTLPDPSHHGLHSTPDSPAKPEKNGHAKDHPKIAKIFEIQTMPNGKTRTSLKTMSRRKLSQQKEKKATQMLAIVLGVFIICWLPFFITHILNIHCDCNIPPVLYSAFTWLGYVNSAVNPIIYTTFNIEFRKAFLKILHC
T1 sequence (P61169 whole entry): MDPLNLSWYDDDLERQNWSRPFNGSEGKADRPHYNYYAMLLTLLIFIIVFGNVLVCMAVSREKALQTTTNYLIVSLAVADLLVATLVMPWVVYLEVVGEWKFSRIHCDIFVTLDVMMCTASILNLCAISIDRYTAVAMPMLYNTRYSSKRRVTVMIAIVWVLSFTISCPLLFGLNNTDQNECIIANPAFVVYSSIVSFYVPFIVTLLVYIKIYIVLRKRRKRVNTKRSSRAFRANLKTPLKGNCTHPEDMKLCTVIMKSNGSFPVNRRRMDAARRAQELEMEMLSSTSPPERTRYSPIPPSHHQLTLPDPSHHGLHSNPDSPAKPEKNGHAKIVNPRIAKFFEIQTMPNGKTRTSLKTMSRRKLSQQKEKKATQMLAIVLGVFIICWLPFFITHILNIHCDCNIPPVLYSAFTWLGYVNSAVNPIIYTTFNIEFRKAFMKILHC
Sequence of D(3) dopamine receptor (P35462 whole entry): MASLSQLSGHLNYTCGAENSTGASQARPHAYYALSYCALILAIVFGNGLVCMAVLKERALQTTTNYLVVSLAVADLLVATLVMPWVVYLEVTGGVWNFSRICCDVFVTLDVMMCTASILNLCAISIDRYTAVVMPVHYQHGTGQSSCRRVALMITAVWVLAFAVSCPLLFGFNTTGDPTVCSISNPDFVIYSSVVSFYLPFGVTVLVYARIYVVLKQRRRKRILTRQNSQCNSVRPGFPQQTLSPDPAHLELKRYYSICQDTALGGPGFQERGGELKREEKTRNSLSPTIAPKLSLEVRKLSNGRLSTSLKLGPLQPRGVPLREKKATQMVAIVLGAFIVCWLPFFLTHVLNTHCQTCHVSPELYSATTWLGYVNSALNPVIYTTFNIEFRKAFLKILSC

Row | Structure (SMILES) | Ki [1] | Ki [2] | Ki [3] | Ki [4] | Ki [5] | Ki [6] | Ki [7] | Ki [8] | ED50 [9]
1 | CS(=O)(=O)Nc1cc(OCCNCc2cccs2)ccc1Cl | 2.6 nM | 137 nM | 27.8 nM | 9 nM | 6 nM | – | – | – | –
2 | Oc1ccccc1OCCNCc1ccccc1 | 9.6 nM | 297 nM | 281 nM | 456 nM | 191 nM | – | – | – | –
3 | Oc1cccc(N2CCN(Cc3ccccc3)CC2)c1 | – | – | 28.9 nM | – | – | > 1000 nM | > 400 nM | > 1000 nM | 1.4 mg/kg
4 | c1ccc(CNCCOc2ccccc2)cc1 | 68.4 nM | 94 nM | > 400 nM | > 300 nM | 241 nM | – | – | – | –
5 | CS(=O)(=O)Nc1cccc(OCCNCc2ccccc2)c1 | 4.4 nM | 500 nM | 42.5 nM | 37.6 nM | 29.3 nM | – | – | – | –
6 | CS(=O)(=O)Nc1cc(OCCNCc2ccccc2)ccc1Cl | 1.6 nM | – | 11 nM | 75.8 nM | 3 nM | – | – | – | –
7 | Oc1ccc(N2CCN(Cc3ccccc3)CC2)cc1 | 120 nM | – | > 400 nM | > 300 nM | – | – | 91.8 nM | – | –
8 | CS(=O)(=O)Nc1cc(OCCNCc2cccs2)ccc1F | 19.7 nM | – | > 400 nM | > 300 nM | 11.7 nM | – | > 400 nM | – | –
9 | Oc1ccccc1N1CCN(Cc2ccccc2)CC1 | 64.7 nM | – | > 400 nM | > 300 nM | 118 nM | – | > 400 nM | – | –
10 | Oc1cccc(OCCNCc2ccccc2)c1 | 3.6 nM | 80.6 nM | 11 nM | 75.8 nM | 101 nM | 5291 nM | – | 1780 nM | 0.08 mg/kg
11 | CS(=O)(=O)Nc1cc(OCCNCc2ccccc2)ccc1F | 7.9 nM | – | > 5000 nM | > 10000 nM | 24.1 nM | – | – | – | –
12 | c1ccc(CN2CCN(c3ccccc3)CC2)cc1 | 16.2 nM | – | > 400 nM | > 300 nM | 124 nM | – | 267 nM | – | –
13 | Oc1ccc(OCCNCc2ccccc2)cc1 | 113 nM | 277 nM | > 5000 nM | > 10000 nM | – | – | – | – | –
14 | Nc1cc(OCCNCc2ccccc2)ccc1Cl | 237 nM | 27.2 nM | > 1000 nM | > 1000 nM | – | – | – | – | –
